Test results: US10946028B2, “Polymer conjugate of sulfoxide derivative-coordinated platinum(II) complex” (priority 2015, dated 2021)
Where “and” joins values, the source holds several entries; their conditions need not be identical. Identical values can stand only once. Like-named read-outs stand apart in the source and are kept apart here.

Legend:
[1] = test system: Human gastric cancer 4-1ST; assay: Antitumor Test 3, human gastric cancer 4-1ST-transplanted mouse; format: in vivo, BALB/cA-nu/nu mice
Description: (§1) Human gastric cancer 4-1ST was subcultured and maintained subcutaneously in BALB/cA-nu/nu mice (hereinafter, nude mice). Human gastric cancer 4-1ST was purchased from Central Institute for Experimental Animals.
Human gastric cancer 4-1ST was collected from subcutaneous sites of nude mice, and the tumors were finely cut into blocks each measuring about 3 mm on one side. The tumor blocks thus obtained were transplanted subcutaneously into the dorsal side of nude mice using a trocar. On the 17th day after transplantation, when the average tumor volume reached about 100 to 200 mm^3, various drugs were intravenously administered through the caudal vein. […] As a control drug, 1-OHP or cisplatin (CDDP) was administered once at a dose of 18 mg/kg or 10 mg/kg. Regarding the high amounts of administration of the administered compounds, the maximum tolerable dose (MTD dose) was employed in all cases. After the administration of the various drugs, the major axes (L) and the minor axes (W) of the tumors were measured over time using calipers, and the tumor volumes (L×W×W×0.5) were calculated. The test was carried out using four animals per group in all cases for a non-administered group and various drug-administered groups. For a period starting from the initiation of administration to the 21st day after administration, the T/C (%) values of the various drug-administered groups are presented in Table 5.

[2] = Maximum tolerable dose (MTD dose) in the antitumor tests; format: in vivo, BALB/cA-nu/nu mice; settings: administered once intravenously, nude mice
Description: Human gastric cancer 4-1ST was collected from the subcutaneous sites of nude mice, and the tumors were finely cut into blocks each measuring about 3 mm on one side. The tumor blocks thus obtained were transplanted subcutaneously into the dorsal side of nude mice using a trocar. On the 18th day after transplantation, when the average tumor volume reached about 100 to 200 mm^3, various drugs were intravenously administered through the caudal vein. […] As control drugs, 1-OHP was administered once at a dose of 20 mg/kg, and cisplatin was administered once at a dose of 10 mg/kg. […]
(§2) Human gastric cancer 4-1ST was collected from subcutaneous sites of nude mice, and the tumors were finely cut into blocks each measuring about 3 mm on one side. […] After the administration of the various drugs, the major axes (L) and the minor axes (W) of the tumors were measured over time using calipers, and the tumor volumes (L×W×W×0.5) were calculated. […]
as §2

[3] = test system: Human gastric cancer 4-1ST; assay: Antitumor Test 1, human gastric cancer 4-1ST-transplanted mouse; format: in vivo, BALB/cA-nu/nu mice
Description: as §1
Human gastric cancer 4-1ST was collected from the subcutaneous sites of nude mice, and the tumors were finely cut into blocks each measuring about 3 mm on one side. The tumor blocks thus obtained were transplanted subcutaneously into the dorsal side of nude mice using a trocar. On the 18th day after transplantation, when the average tumor volume reached about 100 to 200 mm^3, various drugs were intravenously administered through the caudal vein. […] As control drugs, 1-OHP was administered once at a dose of 20 mg/kg, and cisplatin was administered once at a dose of 10 mg/kg. Regarding the amounts of administration of 1-OHP and cisplatin, and the high amounts of administration of the various Example compounds, the maximum tolerable dose (MTD dose) was employed in all cases.
After the administration of the various drugs, the major axes (L) and the minor axes (W) of the tumors were measured over time using calipers, and the tumor volumes (L×W×W×0.5) were calculated. The test was carried out using four animals per group in all cases for a non-administered group and various drug-administered groups. For a period starting from the initiation of administration to the 20th day after administration, the relative tumor volume (T/C (%)) of each of the drug-administered groups was calculated by the following formula, based on the relative tumor volume of the non-administered group as 100, as an index of the antitumor effect. T/C (%)=Relative tumor volume of administered group/relative tumor volume of non-administered group×100 Formula: […]

[4] = test system: DAN-G cells; assay: Proliferation inhibition test, concentration/time dependency; format: cell-based, Human
Description: Human pancreatic cancer cell line, DAN-G, was purchased from Asta Medica GmbH, and the cells were proliferated and subcultured in a recommended medium described in the pamphlet.
For DAN-G cells that had been cultured and proliferated on a 10 cm dish for cell culture, the culture fluid was removed, and the cells were washed once with 5 ml of PBS (phosphate buffered physiological saline). Subsequently, 1 ml of 0.25% trypsin/0.05% EDTA (ethylenediaminetetraacetic acid)/PBS was added to the cells, and the mixture was left to stand for 5 minutes at 37° C. After it was confirmed that the cells had been detached from the dish, 9 ml of medium was added to the dish to disperse the cells, the dispersion was transferred into a 15 ml tube (Corning, Inc.), and the dispersion was centrifuged for 5 minutes at 1,000 rpm. A supernatant was removed, subsequently 10 ml of fresh medium was added to the tube, and the cells were suspended. A portion of the cells was stained with Trypan Blue, and the viable cell count was measured using a hemocytometer. The suspended cells were diluted with medium to a concentration of 2.6×10^4 cells/ml, and the cells were inoculated onto five sheets of 96 well plate (Plates A, B, C, D, and E) at a volume of 190 μl/well (5×10^3 cells/well).
The cells were then cultured under the conditions of 37° C. and 5% CO2. Three replica wells were provided for each drug concentration.
A test was performed under five different conditions by changing the drug addition time.
For Plates A, B, C, D, and E that had been cultured for 72 hours as described above, the medium was removed, subsequently methanol was added to the plates, and the cells were thereby immobilized on the plates. After methanol was removed, a 0.05% Methylene Blue solution was added to the plate, and the cells were stained for 30 minutes. Methylene Blue was removed, any excess stain solution was washed with water, subsequently 3% hydrochloric acid was added to the plate at a volume of 200 μl/well, and thus Methylene Blue was extracted. The plates were left to stand for 2 hours or longer, and the absorbance at 660 nm was measured using a microplate reader (BENCHMARK PLUS, manufactured by Bio-Rad Laboratories, Inc.). Regarding the measured values, the average value of three replicas of a well for each drug concentration was taken. The proliferation inhibition ratio GI(x) % at a drug concentration x was calculated by the following formula from the absorbance values thus measured. GI(x)%=(1−(Ax−B)/(A0−B))×100

[5] = test system: Human gastric cancer 4-1ST; assay: Antitumor Test 2, human gastric cancer 4-1ST-transplanted mouse; format: in vivo, BALB/cA-nu/nu mice; settings: 18 mg/kg once i.v.
Description: as §1
Human gastric cancer 4-1ST was collected from subcutaneous sites of nude mice, and the tumors were finely cut into blocks each measuring about 3 mm on one side. The tumor blocks thus obtained were transplanted subcutaneously into the dorsal side of nude mice using a trocar. On the 18th day after transplantation, when the average tumor volume reached about 100 to 200 mm^3, various drugs were intravenously administered through the caudal vein. […] As a control drug, 1-OHP was administered once at a dose of 18 mg/kg. […] Regarding Example 3 compound, the dose was less than or equal to the MTD dose; however, the dissolution limit of the compound was administered. After the administration of the various drugs, the major axes (L) and the minor axes (W) of the tumors were measured over time using calipers, and the tumor volumes (L×W×W×0.5) were calculated. The test was carried out using four animals per group in all cases for a non-administered group and various drug-administered groups. For a period starting from the initiation of administration to the 21st day after administration, the T/C (%) values of the various drug-administered groups are presented in Table 4.

[6] = Body weight change in Antitumor Test 3; format: in vivo; settings: 18 mg/kg once i.v., body weight on day of initiation = 1
Description: Human gastric cancer 4-1ST was collected from subcutaneous sites of nude mice, and the tumors were finely cut into blocks each measuring about 3 mm on one side. The tumor blocks thus obtained were transplanted subcutaneously into the dorsal side of nude mice using a trocar. On the 17th day after transplantation, when the average tumor volume reached about 100 to 200 mm^3, various drugs were intravenously administered through the caudal vein. […] Regarding the high amounts of administration of the administered compounds, the maximum tolerable dose (MTD dose) was employed in all cases. After the administration of the various drugs, the major axes (L) and the minor axes (W) of the tumors were measured over time using calipers, and the tumor volumes (L×W×W×0.5) were calculated. The test was carried out using four animals per group in all cases for a non-administered group and various drug-administered groups.
After the administration, the body weights of the mice were measured over time.

With `N.N.[Cl][Pt][Cl]` [Cisplatin, cisplatin] the “T/C (%) on days after each administration” value (“T/C (%) on days” for short) ([1]; 10 mg/kg once i.v., day 0) was 100%, the “T/C (%) on days” value ([1]; 10 mg/kg once i.v., day 4) was 77% and the “T/C (%) on days” value ([1]; 10 mg/kg once i.v., day 7) was 43%. The “T/C (%) on days” value ([1]; 10 mg/kg once i.v., day 11) was 32%, the “T/C (%) on days” value ([1]; 10 mg/kg once i.v., day 14) was 36% and the “T/C (%) on days” value ([1]; 10 mg/kg once i.v., day 18) was 37%. For the same compound, the “T/C (%) on days” value ([1]; 10 mg/kg once i.v., day 21) was 42%, the “Maximum tolerable dose (MTD dose)” value [2] was 10 mg/kg and the “T/C (%) on days” value ([3]; 10 mg/kg once i.v., day 0) was 100%. For the same compound, the “T/C (%) on days” value ([3]; 10 mg/kg once i.v., day 3) was 91%, the “T/C (%) on days” value ([3]; 10 mg/kg once i.v., day 6) was 49% and the “T/C (%) on days” value ([3]; 10 mg/kg once i.v., day 9) was 32%. The “T/C (%) on days” value ([3]; 10 mg/kg once i.v., day 13) was 31%, the “T/C (%) on days” value ([3]; 10 mg/kg once i.v., day 16) was 35% and the “T/C (%) on days” value ([3]; 10 mg/kg once i.v., day 20) was 36%.
For `O=C1[O][Pt]2([NH][C@@H]3CCCC[C@H]3[NH]2)[O]C1=O` [l-OHP, Oxaliplatin], the “T/C (%) on days” value ([1]; 18 mg/kg once i.v., day 0) was 100%, the “T/C (%) on days” value ([1]; 18 mg/kg once i.v., day 4) was 84% and the “T/C (%) on days” value ([1]; 18 mg/kg once i.v., day 7) was 52%. The “T/C (%) on days” value ([1]; 18 mg/kg once i.v., day 11) was 50%, the “T/C (%) on days” value ([1]; 18 mg/kg once i.v., day 14) was 50% and the “T/C (%) on days” value ([1]; 18 mg/kg once i.v., day 18) was 60%. For the same compound, the “T/C (%) on days” value ([1]; 18 mg/kg once i.v., day 21) was 57%, the “Maximum tolerable dose (MTD dose)” value ([2]; listed as 1-OHP) was 20 mg/kg and 18 mg/kg and the IC50 ([4]; drug exposure 6 hours, 72 hours total culture, concentration in terms of DACH-platin, read-out: IC50, 6 hours) was 9 µM. For the same compound, the IC50 ([4]; drug exposure 24 hours, 72 hours total culture, concentration in terms of DACH-platin, read-out: IC50, 24 hours) was 1.8 µM, the IC50 ([4]; drug exposure 48 hours, 72 hours total culture, concentration in terms of DACH-platin, read-out: IC50, 48 hours) was 0.9 µM and the IC50 ([4]; drug exposure 72 hours, concentration in terms of DACH-platin, read-out: IC50, 72 hours) was 0.9 µM. The “IC50 (6 hours)/IC50 (72 hours)” value ([4]; ratio of IC50 values) was 10.0, the IC50 ([4]; read-out: IC50, 2 hour, drug exposure 2 hours, 72 hours total culture, concentration in terms of DACH-platin) was 44.1 µM and the “T/C (%) on days” value ([5]; day 0) was 100%. The “T/C (%) on days” value ([5]; day 3) was 100%, the “T/C (%) on days” value ([5]; day 7) was 65% and the “T/C (%) on days” value ([5]; day 10) was 58%. The “T/C (%) on days” value ([5]; day 14) was 57%, the “T/C (%) on days” value ([5]; day 17) was 61% and the “T/C (%) on days” value ([5]; day 21) was 60%. The “T/C (%) on days” value ([3]; 20 mg/kg once i.v., day 0) was 100%, the “T/C (%) on days” value ([3]; 20 mg/kg once i.v., day 3) was 96% and the “T/C (%) on days” value ([3]; 20 mg/kg once i.v., day 6) was 53%. For the same compound, the “T/C (%) on days” value ([3]; 20 mg/kg once i.v., day 9) was 46%, the “T/C (%) on days” value ([3]; 20 mg/kg once i.v., day 13) was 46% and the “T/C (%) on days” value ([3]; 20 mg/kg once i.v., day 16) was 51%. For the same compound, the “T/C (%) on days” value ([3]; 20 mg/kg once i.v., day 20) was 50%, the “Relative body weight on days after administration” value (“Relative body weight on days” below) ([6]; day 0) was 1.00 and the “Relative body weight on days” value ([6]; day 4) was 0.78. For the same compound, the “Relative body weight on days” value ([6]; day 7) was 0.83, the “Relative body weight on days” value ([6]; day 11) was 0.93 and the “Relative body weight on days” value ([6]; day 14) was 1.03. The “Relative body weight on days” value ([6]; day 18) was 1.09 and the “Relative body weight on days” value ([6]; day 21) was 1.05.
